From patent US8772500B2, “TRPV3 modulators” (AbbVie Inc., priority 2011, dated 2014)

Columns and labels:
[1] = In vitro rat microsomal stability assay; format: in vitro ADME, rat (Sprague-Dawley)
Experimental: (§1) Test compounds were evaluated for metabolic stability in an in vitro rat microsomal stability assay using rat (Sprague-Dawley, from BD Biosciences) liver microsomes and/or an in vitro human microsomal stability assay using human (Xenotech) liver microsomes. […] Incubations were carried out at 37° C. with a final incubation volume of 135 μL. […] A 1.5 μL aliquot of reduced nicotine adenine disphosphonucleotide (NADPH) (Chem-Impex Int'L Inc., Lot 12532024) was also added to the time-zero plates.

[2] = In vitro human microsomal stability assay; format: in vitro ADME
Experimental: as §1

[3] = Sprague-Dawley, rat, 0.5 h, 0.5 μM, pH 7.4
[4] = 0.5 μM substrate, 0.25 mg/mL microsomal protein, pH 7.4, 37° C., NADPH, 30 minutes

Row | RAT MICROSOMAL STABILITY (% REMAINING AFTER 30 MINUTES) [1, 3] [%] | HUMAN MICROSOMAL STABILITY (% REMAINING AFTER 30 MINUTES) ([2]; human, 0.5 h, 0.5 μM, pH 7.4) [%] | Compound | RAT MICROSOMAL STABILITY (% REMAINING AFTER 30 MINUTES) [1, 4] [%] | HUMAN MICROSOMAL STABILITY (% REMAINING AFTER 30 MINUTES) [2, 4] [%]
1 | >85 | >85 | OC1CC(c2ccc(C(F)(F)F)cc2)([C@@H](O)c2ccccn2)C1 (mixture of isomers) [Example 199, 3-[(R)-hydroxy(pyridin-2-yl)methyl]-3-[4-(trifluoromethyl)phenyl]-cyclobutanol] | – | –
2 | 0.17 | 40 | OC(c1ccccn1)C1(c2cccc(F)c2)CCCO1 (single isomer, unassigned) [Example 101, (syn)-[2-(3-fluorophenyl)tetrahydrofuran-2-yl](pyridin-2-yl)methanol] | – | –
3 | 50 | >85 | OC1CC(c2ccc(OC(F)(F)F)cc2)(C(O)c2ccccn2)C1 (single isomer, unassigned) [Example 131] | – | –
4 | <0.01 | 9.2 | OC(C1CCCc2cccnc21)C1(c2ccc(OC(F)(F)F)cc2)CCC1 (single isomer, unassigned) [Example 178, (syn)-5,6,7,8-tetrahydroquinolin-8-yl{1-[4-(trifluoromethoxy)phenyl]-cyclobutyl}methanol] | – | –
5 | <0.01 | <0.01 | OC(C1CCCc2cccnc21)C1(c2cccc(C(F)(F)F)c2)CCC1 (single isomer, unassigned) [Example 180, (syn)-5,6,7,8-tetrahydroquinolin-8-yl{1-[3-(trifluoromethyl)phenyl]-cyclobutyl}methanol] | – | –
6 | <0.01 | <0.01 | OC(C1CCCc2cccnc21)C1(c2ccc(Cl)c(Cl)c2)CCC1 (single isomer, unassigned) [Example 182, (syn)-[1-(3,4-dichlorophenyl)cyclobutyl][5,6,7,8-tetrahydroquinolin-8-yl]-methanol] | – | –
7 | <0.01 | 0.46 | OC(C1CCCc2cccnc21)C1(c2ccc(C(F)(F)F)cc2)CCC1 (single isomer, unassigned) [Example 184, (syn)-5,6,7,8-tetrahydroquinolin-8-yl{1-[4-(trifluoromethyl)phenyl]-cyclobutyl}methanol] | – | –
8 | >85 | 81 | OC1CC(c2ccc(Cl)c(Cl)c2)(C(O)c2ncccn2)C1 (single isomer, unassigned) [Example 313] | – | –
9 | 76 | >85 | OC(c1ccccn1)C1(c2ccccn2)CCC1 (centres unmarked) [Example 19, pyridin-2-yl(1-pyridin-2-ylcyclobutyl)methanol] | – | –
10 | 81 | 80 | OC(c1ccccn1)C1(c2cccnc2)CCC1 (centres unmarked) [Example 20, pyridin-2-yl(1-pyridin-3-ylcyclobutyl)methanol] | – | –
11 | 52 | 71 | OC(c1ccccn1)C1(c2ccncc2)CCC1 (centres unmarked) [Example 21, pyridin-2-yl(1-pyridin-4-ylcyclobutyl)methanol] | – | –
12 | 21 | 54 | O[C@H](c1ncccn1)C1(c2ccc(C(F)(F)F)cc2)CCC1 [Example 41, (S)-pyrimidin-2-yl{1-[4-(trifluoromethyl)phenyl]cyclobutyl}methanol] | – | –
13 | 40 | 50 | O[C@@H](c1ncccn1)C1(c2ccc(C(F)(F)F)cc2)CCC1 [Example 42, (R)-pyrimidin-2-yl{1-[4-(trifluoromethyl)phenyl]cyclobutyl}methanol] | – | –
14 | 0.31 | 1.8 | OC(c1ccccn1)C1(c2ccc(Cl)c(Cl)c2)CCCCC1 (centres unmarked) [Example 43, [1-(3,4-dichlorophenyl)cyclohexyl](pyridin-2-yl)methanol] | – | –
15 | 8.6 | 47 | OC(c1ccccn1)C1(c2ccc(Cl)c(Cl)c2)COC1 (centres unmarked) [Example 87, [3-(3,4-dichlorophenyl)oxetan-3-yl](pyridin-2-yl)methanol] | – | –
16 | 0.55 | 45 | OC(c1ccccn1)C1(c2ccccc2F)CCCO1 (centres unmarked) [Example 102] | – | –
17 | <0.01 | 1.6 | Nc1cccnc1C(O)C1(c2cccc(C(F)(F)F)c2)CCC1 (centres unmarked) [Example 120, (3-aminopyridin-2-yl){1-[3-(trifluoromethyl)phenyl]cyclobutyl}methanol] | – | –

Row | RAT MICROSOMAL STABILITY (% REMAINING AFTER 30 MINUTES) [1, 3] [%] | HUMAN MICROSOMAL STABILITY (% REMAINING AFTER 30 MINUTES) ([2]; human, 0.5 h, 0.5 μM, pH 7.4) [%] | Compound | RAT MICROSOMAL STABILITY (% REMAINING AFTER 30 MINUTES) [1, 4] [%] | HUMAN MICROSOMAL STABILITY (% REMAINING AFTER 30 MINUTES) [2, 4] [%]
18 | 0.18 | 41 | Nc1cccnc1C(O)C1(c2ccc(OC(F)(F)F)cc2)CCC1 (centres unmarked) [Example 121, (3-aminopyridin-2-yl){1-[4-(trifluoromethoxy)phenyl]cyclobutyl}methanol] | – | –
19 | 26 | 28 | O[C@@H](c1ccccn1)C1(c2cc(C(F)(F)F)ccn2)CCC1 [Example 122, (R)-pyridin-2-yl{1-[4-(trifluoromethyl)pyridin-2-yl]cyclobutyl}methanol] | – | –
20 | <0.01 | 1.6 | Nc1cccnc1C(O)C1(c2cccc(OC(F)(F)F)c2)CCC1 (centres unmarked) [Example 124, (3-aminopyridin-2-yl){1-[3-(trifluoromethoxy)phenyl]cyclobutyl}methanol] | – | –
21 | 37 | >85 | OC(c1ccccn1)C1(c2ccc(Cl)c(Cl)c2)CCNCC1 (centres unmarked) [Example 140, [4-(3,4-dichlorophenyl)piperidin-4-yl](pyridin-2-yl)methanol] | – | –
22 | – | – | CN1CCC(c2ccc(Cl)c(Cl)c2)(C(O)c2ccccn2)CC1 (centres unmarked) [Example 141, [4-(3,4-dichlorophenyl)-1-methylpiperidin-4-yl](pyridin-2-yl)methanol] | 59 | >85
23 | 37 | >85 | OC(c1ccccn1)C1(c2ccccc2OC(F)(F)F)CCNCC1 (centres unmarked) [Example 142, pyridin-2-yl{4-[2-(trifluoromethoxy)phenyl]piperidin-4-yl}methanol] | – | –
24 | – | – | CN1CCC(c2ccc(C(F)(F)F)cc2)(C(O)c2ccccn2)CC1 (centres unmarked) [Example 143, {1-methyl-4-[4-(trifluoromethyl)phenyl]piperidin-4-yl}(pyridin-2-yl)-methanol] | 80 | >85
25 | 51 | >85 | OC(c1ccccn1)C1(c2ccc(OC(F)(F)F)cc2)CCNCC1 (centres unmarked) [Example 144, pyridin-2-yl{4-[4-(trifluoromethoxy)phenyl]piperidin-4-yl}methanol] | – | –
26 | 79 | >85 | OC(c1ccccn1)C1(c2ccc(C(F)(F)F)cc2)CCNCC1 (centres unmarked) [Example 147, pyridin-2-yl{4-[4-(trifluoromethyl)phenyl]piperidin-4-yl}methanol] | – | –
27 | 0.08 | 26 | CC(C)(C)OC(=O)N1CCC(c2ccc(C(F)(F)F)cc2)(C(O)c2ccccn2)CC1 (centres unmarked) [Example 156, tert-butyl 4-[hydroxy(pyridin-2-yl)methyl]-4-[4-(trifluoromethyl)phenyl]-piperidine-1-carboxylate] | – | –
28 | 0.93 | 28 | CC(C)(C)OC(=O)N1CCC(c2ccc(OC(F)(F)F)cc2)(C(O)c2ccccn2)CC1 (centres unmarked) [Example 157, tert-butyl 4-[hydroxy(pyridin-2-yl)methyl]-4-[4-(trifluoromethoxy)phenyl]-piperidine-1-carboxylate] | – | –
29 | – | – | CC(C)(C)OC(=O)N1CCC(c2cccc(OC(F)(F)F)c2)(C(O)c2ccccn2)CC1 (centres unmarked) [Example 158, tert-butyl 4-[hydroxy(pyridin-2-yl)methyl]-4-[3-(trifluoromethoxy)phenyl]-piperidine-1-carboxylate] | 0.04 | 3.7
30 | 81 | 71 | O=C1CC(c2ccc(C(F)(F)F)cc2)([C@H](O)c2ccccn2)C1 [Example 164, 3-[(S)-hydroxy(pyridin-2-yl)methyl]-3-[4-(trifluoromethyl)phenyl]-cyclobutanone] | – | –
31 | 77 | 83 | O=C1CC(c2ccc(C(F)(F)F)cc2)([C@@H](O)c2ccccn2)C1 [Example 165, 3-[(R)-hydroxy(pyridin-2-yl)methyl]-3-[4-(trifluoromethyl)phenyl]cyclobutanone] | – | –
32 | <0.01 | 9.5 | OC(C1CCc2cccnc21)C1(c2ccc(Cl)c(Cl)c2)CCC1 (stereo not drawn) [Example 167, (anti)-[1-(3,4-dichlorophenyl)cyclobutyl][6,7-dihydro-5H-cyclopenta[b]-pyridin-7-yl]methanol] | – | –
33 | – | 0.18 | OC(C1CCc2cccnc21)C1(c2cccc(C(F)(F)F)c2)CCC1 (stereo not drawn) [Example 186, (syn)-6,7-dihydro-5H-cyclopenta[b]pyridin-7-yl{1-[3-(trifluoromethyl)-phenyl]cyclobutyl}methanol] | – | –
